No end group written: not given here.
What was measured:
[1] = system: cofilin (pS3) in rat pancreatic acini; experiment: cofilin activation (phospho-pS3 cofilin Western blot) in isolated rat pancreatic acini; type: cell-based; conditions: for effect on cofilin phosphorylation (pS3): 1 min, CCK-8 100 nM, carbachol 1 μM, bombesin 1 nM, secretin 1 nM or VIP 1 nM, n at least 3; for reversal of cofilin dephosphorylation by CCK-8: Wortmannin 1 µM, LY294002 100 µM, SB202190 10 µM, U0126 10 µM, Y-27632 10 µM 1 h, SP600125 20 µM 3 h; for reversal of cofilin dephosphorylation by CCK-8 / inhibition of dephosphorylation of cofilin stimulated by CCK-8 or TPA: CCK-8 0.3 and 100 nM 3 min; for inhibition of dephosphorylation of cofilin stimulated by CCK-8 or TPA: PF-3758309 0.1 nM or LCH-7749944 30 µM; for inhibition of dephosphorylation of cofilin stimulated by CCK-8 or TPA / effect on basal phosphorylation level of cofilin / reversal of cofilin dephosphorylation stimulated by CCK-8 and TPA: 3 h; for inhibition of dephosphorylation of cofilin stimulated by CCK-8 or TPA / reversal of cofilin dephosphorylation stimulated by CCK-8 and TPA: TPA 1 µM 5 min; for effect on basal phosphorylation of cofilin: SE 50 µM 3 h or D3 25 µM 1 h; for effect on basal phosphorylation of cofilin / effect on basal phosphorylation level of cofilin / decrease of basal phosphorylation levels of cofilin: no stimulant; for effect on basal phosphorylation level of cofilin / reversal of cofilin dephosphorylation stimulated by CCK-8 and TPA: GFX 5 µM, kbNB 0.1 µM or PP2 10 µM; for reversal of cofilin dephosphorylation stimulated by CCK-8 and TPA: CCK-8 100 nM 3 min; for decrease of basal phosphorylation levels of cofilin / inhibition of CCK-8-stimulated dephosphorylation of cofilin: LIMK inhibitor 10 µM 3 h; for inhibition of CCK-8-stimulated dephosphorylation of cofilin: CCK-8 0.3 or 100 nM 3 min
Description: (§1) Pancreatic acini preparations were obtained by collagenase digestion as previously described ([Bissonnette et al., 1984]; [Sato et al., 1989]; [Ramos-Alvarez and Jensen, 2018]). After collagenase digestion, dispersed acini were preincubated with different inhibitors in standard incubation solution ([Ramos-Alvarez and Jensen, 2018]; [Ramos-Ãlvarez et al., 2020]) for 3 h at 37°C under conditions specific for PKD/PKC, Src, PI3K, MAPKs, SSH1, LIMK, cofilin, other phosphatases and PAK4 inhibitors, as described previously ([Ramos-Alvarez and Jensen, 2018]; [Ramos-Ãlvarez et al., 2020]). Isolated acini and CCK1-R/Panc-1 cells (M&M 2.2.1) were also preincubated with two SSH1 inhibitors, D3 (25 μM, 1 h) ([Li et al., 2015]) or SE (50 μM, 3 h for acini; 24 h for CCK1-R/Panc-1 cells) ([Lee et al., 2017]). After preincubation, 1 mL aliquots of dispersed acini were incubated at 37°C for 3–15 min with CCK-8 (0.3 nM or 100 nM), for 5–15 min with TPA (1 µM) or without stimulants, used as control. Cells were lysed in lysis buffer (50 mM Tris/HCl pH 7.5, 150 mM NaCl, 1% Triton X-100, 1% deoxycholate, 0.1% sodium azide, 1 mM EGTA, 0.4 mM EDTA, 0.2 mM sodium orthovanadate, 1 mM PMSF, and one protease inhibitor tablet per 10 mL). After sonication, lysates were centrifuged at 10,000×g for 15 min at 4°C and protein concentration was measured using the Bio-Rad protein assay reagent. Finally, cells were processed as below for Western blotting.
(§2) Both concentrations of CCK-8 were used because CCK-8 is reported to have different responses with physiological and supraphysiological concentrations contributing to physiological and pathophysiological processes such as pancreatitis ([Dufresne et al., 2006]).
(§3) Western blotting and immunoprecipitation were performed as described previously ([Ramos-Alvarez and Jensen, 2018]). Whole cell lysates were subjected to SDS-PAGE using 4%–20% Tris–Glycine gels. […] Finally, membranes were then washed again twice in blocking buffer for 4 min, twice in washing buffer for 4 min, incubated for 4 min with chemiluminescence detection reagents. The intensity of the protein bands was measured using GeneTools software from Syngene, which were assessed in the linear detection range.
All experiments were performed at least 3 times. Data are presented as mean ± SEM and were analyzed with the non-parametric Kruskal–Wallis analysis (data was not normally distributed) and the Dunn’s multiple comparison test using the GraphPad Prism 8.0 software. P values < 0.05 were considered significant.
(A) Isolated pancreatic acini were incubated in the absence or presence of CCK-8 (100 nM), carbachol (1 μM), bombesin (1 nM), secretin (1 nM) or VIP (1 nM) for 1 min and then lysed. (B) Isolated pancreatic acini were incubated in the absence or presence of CCK-8 and CCK-JMV (at the indicate concentrations) for 3 min and then lysed. Western blots were analyzed using anti-pS3 cofilin, which mediates the activation state of cofilin. Bands were visualized using chemiluminescence and quantified by densitometry.

[2] = system: LIMK (pT508) in pancreatic acini; experiment: LIMK phosphorylation (pT508 LIMK Western blot) in isolated rat pancreatic acini; type: cell-based; conditions: for effect on basal phosphorylation of LIMK: SE 50 µM 3 h or D3 25 µM 1 h; for effect on basal phosphorylation of LIMK / decrease of basal levels of LIMK phosphorylation: no stimulant; for decrease of basal levels of LIMK phosphorylation: 10 µM, 3 h preincubation, n at least 4
Description: as §1, §2, §3
Isolated pancreatic acini were incubated with either no addition (control), CCK-8 (0.3 and 100 nM) or TPA (1 µM) for the indicated periods of time and then lysed. Western blots were analyzed using anti-pT508 LIMK, anti-pS3 cofilin and anti-pS978 SSH1, which […] the activation states of LIMK, cofilin and SSH1. Bands were visualized using chemiluminescence and quantified by densitometry.

[3] = system: cofilin (pS3) in CCK1-R/Panc-1 cells; experiment: cofilin activation (pS3 cofilin Western blot) in CCK1-R/Panc-1 cells; type: cell-based, human; conditions: CCK-8 0.3 or 100 nM; D3 25 µM 1 h or SE 50 µM 24 h
Description: CCK1 receptor transfected Panc-1 (CCK1-R/Panc-1) cells ([Berna et al., 2009]) and AR42J cells, were cultured in DMEM supplemented with 10% FBS and 1% penicillin/streptomycin and in RPMI supplemented with 10% FBS and 1% penicillin/streptomycin, respectively; and split 1:10 weekly with trypsin/EDTA, after washing in PBS. Finally, cells were seeded in 6-well plate and serum starved overnight, until they were 80% confluent. Cells were incubated at 37°C in 5% CO2/95% air. AR42J cells were treated with 100 nM dexamethasone for 72°h, which stimulates their differentiation into exocrine cells ([Logsdon, 1986]).
Pancreatic acini preparations were obtained by collagenase digestion as previously described ([Bissonnette et al., 1984]; [Sato et al., 1989]; [Ramos-Alvarez and Jensen, 2018]). […] Isolated acini and CCK1-R/Panc-1 cells (M&M 2.2.1) were also preincubated with two SSH1 inhibitors, D3 (25 μM, 1 h) ([Li et al., 2015]) or SE (50 μM, 3 h for acini; 24 h for CCK1-R/Panc-1 cells) ([Lee et al., 2017]). […] After sonication, lysates were centrifuged at 10,000×g for 15 min at 4°C and protein concentration was measured using the Bio-Rad protein assay reagent. […]
Western blotting and immunoprecipitation were performed as described previously ([Ramos-Alvarez and Jensen, 2018]). […] The intensity of the protein bands was measured using GeneTools software from Syngene, which were assessed in the linear detection range. […]
FIGURE 3 Effect of two SSH1 inhibitors, D3 and SE (A–C), or SSH1 siRNA (D), on the ability of CCK-8 (0.3 and 100 nM) to activate LIMK and cofilin in pancreatic acini (A/B) and activate cofilin in CCK1-R/Panc-1 cells (C/D). […] Western blots were analyzed using anti-pS3 cofilin and anti-pT508 […], and the knockdown effect of SSH1 was confirmed by Western blots using SSH1 (C-term) antibody. Bands were visualized using chemiluminescence and quantified by densitometry. […] Results are expressed as % of basal stimulation of the control group. *, p < 0.05 compared to the control group; ∞, p < 0.05 compared to stimulants without inhibitors. […]

[4] = Rattus norvegicus, CCK-8 0.3 or 100 nM, 5 min, SE 50 µM 3 h or D3 25 µM 1 h preincubation, n at least 4, read-out: inhibition of CCK-8-caused cofilin dephosphorylation
[5] = Rattus norvegicus, CCK-8 0.3 or 100 nM, 5 min, SE 50 µM 3 h or D3 25 µM 1 h preincubation, read-out: inhibition of CCK-8's dephosphorylation of LIMK
[6] = inhibitor 10 µM 3 h, CCK-8 0.3 or 100 nM 3 min

C[N+](C)(C)CCOC(N)=O [carbachol]
effect on cofilin phosphorylation (pS3) [1]: rapidly decreased cofilin phosphorylation

VIP: pancreatic acinar secretagogue (HSDAVFTDNYTRLRKQMAVKKYLNSILN; ends and bridges not checked; UniProt P01282 125-152, looked up)
effect on cofilin phosphorylation (pS3) [1]: rapidly decreased cofilin phosphorylation

COC[C@H]1OC(=O)c2coc3c2[C@@]1(C)C1=C(C3=O)[C@@H]2CCC(=O)[C@@]2(C)C[C@H]1OC(C)=O [Wortmannin]
reversal of cofilin dephosphorylation by CCK-8 [1]: not PI3K or p38

COc1cccc(Nc2nc(NCC3CCCO3)c3ccccc3n2)c1 (centres unmarked) [LCH-7749944, N2-(3-methoxyphenyl)-N4-[(oxolan-2-yl)methyl]quinazoline-2,4-diamine]
inhibition of dephosphorylation of cofilin stimulated by CCK-8 or TPA [1]: completely inhibited

bombesin
effect on cofilin phosphorylation (pS3) [1]: rapidly decreased cofilin phosphorylation

O=c1cc(N2CCOCC2)oc2c(-c3ccccc3)cccc12 [LY294002]
reversal of cofilin dephosphorylation by CCK-8 [1]: not PI3K or p38

O=C(O)c1cc(O)c2c(c1)[C@H]([C@H]1c3cc(C(=O)O)cc(O)c3C(=O)c3c(O[C@@H]4O[C@H](CO)[C@@H](O)[C@H](O)[C@H]4O)cccc31)c1cccc(O[C@@H]3O[C@H](CO)[C@@H](O)[C@H](O)[C@H]3O)c1C2=O [SE, Sennoside A]
inhibition at 50 µM [1, 4]: 30 to 33% | effect on basal phosphorylation of cofilin [1]: Neither D3 nor SE affected the basal phosphorylation of LIMK or cofilin | inhibition at 50 µM [2, 5]: 20% | effect on basal phosphorylation of LIMK [2]: Neither D3 nor SE affected the basal phosphorylation of LIMK or cofilin | inhibition of CCK-8-induced dephosphorylation of cofilin [3]: completely inhibited

C[C@@H](N)[C@H]1CC[C@H](C(=O)Nc2ccncc2)CC1 [Y-27632]
reversal of cofilin dephosphorylation by CCK-8 [1]: completely reversed

KbNB142-70
effect on basal phosphorylation level of cofilin [1]: None of these inhibitors altered the basal phosphorylation level of cofilin | reversal of cofilin dephosphorylation stimulated by CCK-8 and TPA [1]: completely reversed

CC(C)C(=O)Nc1ncc(-c2cc(C(F)F)nn2-c2c(Cl)cccc2Cl)s1 [LIMKi3]
decrease of basal phosphorylation levels of cofilin [1]: 39% | inhibition of CCK-8-stimulated dephosphorylation of cofilin [1]: did not inhibit | decrease of basal levels of LIMK phosphorylation [2]: 33% | inhibition of LIMK dephosphorylation caused by CCK-8 [2, 6]: completely inhibited

secretin
effect on cofilin phosphorylation (pS3) [1]: rapidly decreased cofilin phosphorylation

CC(C)(C)n1nc(-c2ccc(Cl)cc2)c2c(N)ncnc21 [PP2]
effect on basal phosphorylation level of cofilin [1]: None of these inhibitors altered the basal phosphorylation level of cofilin | reversal of cofilin dephosphorylation stimulated by CCK-8 and TPA [1]: completely reversed

Cc1ccccc1N1C(=O)/C(=C/c2ccc(OCc3ccc(C(=O)O)cc3)cc2)SC1=S [D3, (Z)-4-((4-((4-oxo-2-thioxo-3-(o-tolyl)thiazolidin-5-ylidene)methyl)phenoxy)methyl)benzoic acid]
inhibition at 25 µM [1, 4]: 32 to 49% | effect on basal phosphorylation of cofilin [1]: Neither D3 nor SE affected the basal phosphorylation of LIMK or cofilin | inhibition at 25 µM [2, 5]: 20% | effect on basal phosphorylation of LIMK [2]: Neither D3 nor SE affected the basal phosphorylation of LIMK or cofilin | inhibition of CCK-8-induced dephosphorylation of cofilin [3]: completely inhibited

Cc1nc(Nc2[nH]nc3c2CN(C(=O)N[C@H](CN(C)C)c2ccccc2)C3(C)C)c2sccc2n1 [PF-3758309]
inhibition of dephosphorylation of cofilin stimulated by CCK-8 or TPA [1]: completely inhibited

Cc1c[nH]c2ncnc(-c3ccc(NC(=O)N(CCO)c4ccccc4)cc3)c12 [SR7826]
decrease of basal phosphorylation levels of cofilin [1]: 67% | inhibition of CCK-8-stimulated dephosphorylation of cofilin [1]: did not inhibit | decrease of basal levels of LIMK phosphorylation [2]: 33% | increase in LIMK phosphorylation with CCK-8 stimulation [2, 6]: 80% | inhibition of LIMK dephosphorylation caused by CCK-8 [2, 6]: completely inhibited
